Where a name gives a salt, the structure may show the parent alone. Read-outs that look alike come from different tables or passages of the source.

The target in data set [1] is T1, human eNOS (Homo sapiens, UniProt P29474).
T1 construct: made in house
Put plainly: Inhibition of purified human eNOS ([14C]-L-arginine to citrulline conversion). The data set is classed as biochemical. Particulars: purified human enzyme, 30° C., 0.5 μM [14C]-L-arginine; read-out: Purified Human Enzyme Kd tNOS. The method, then: (§1) The inhibition of purified human NO synthases was determined following preparation of human nNOS (Furfine et al. (1993) Biochem. 32, 8512-8517), iNOS (Sherman et al. (1993) Biochem. 32, 11600-11605) and eNOS (Garvey et al. (1994) Arch. Bioch. Biophys., in press) as described. Their activity was monitored by the conversion of [^14C]-L-arginine to citrulline as described by Schmidt et al. ((1991) Proc. Natl. Acad. Sci. USA 88, 365-369) in reaction mixtures (100 μl) containing 50 mM HEPES pH 7.0, 8 μM tetrahydrobiopterin, 1 mM NADPH and 0.5 μM [^14C]-L-arginine (30,000 cpm) at 30° C.

The target of data set [2] is T2, human iNOS (Homo sapiens, UniProt P35228). Put plainly: Inhibition of recombinant human iNOS (baculovirus/insect cell cytosol, spectrophotometric microtitre plate assay). Particulars: 37° C., L-arginine 30 μM, steady-state 15-30 min; mean ±SEM (n). It counts as biochemical. Details: made in house; host or cells: baculovirus/insect cell system; insect cytosol assayed unpurified. The method, then:
Inhibition of recombinant human iNOS was determined following expression in a baculovirus/insect cell system (Charles et al (1994) In: The Biology of Nitric Oxide 4, Moncada S., Feelisch M., Busse R. and Higgs E. A., eds., Portland Press, London, pp 316-320), assaying the insect cytosol for NO synthase in a microtitre plate assay based on the spectrophotometric assay described previously (Knowles et al (1990) Biochem. Biophys. Res. Commun. 172, 1042-1048). The assay was conducted at 37° C. in reaction mixtures containing HEPES (100 mM), DTT (0.1 mM), tetrahydrobiopterin (5 μM), NADPH (100 μM), haemoglobin (5 μM), L-arginine (30 μM) and inhibitor (0-300 μM), measuring the absorbance change at 405-420 nm, and determining the steady-state inhibition between 15 and 30 minutes incubation.

Data set [3] deals with T3, eNOS in rat aortic rings (Rattus norvegicus, UniProt Q62600).
T3 construct: from tissue; host or cells: rat thoracic aorta rings with intact endothelium
Put plainly: Inhibition of eNOS in situ in rat aortic rings (basal tone, intact endothelium). The data set is classed as cell-based. Particulars: rings with intact endothelium; for inhibition at 300 µM: read-out: inhibition at 300 μM, cNOS in rat sortic rings; for IC50: basal tone, mean ±SEM (n), read-out: IC50 cNOS in rat sortic rings. The method, then: (§2) The inhibition of eNOS and iNOS in situ in rat aortic rings was assessed by measuring the increases in ring tension caused by NO synthase inhibition. For studies of basal tone (reflecting eNOS), rings of thoracic aorta with intact endothelium were prepared as described previously (Rees et al. (1989) Br. J. Pharmacol. 96, 418-424) and cumulative concentration curves obtained for the inhibitors in the presence of a threshold concentration of phenylephrine (ED10≈10 nM). For studies of induced smooth muscle tone (reflecting iNOS), endothelium-denuded rings were exposed to LPS (0.1 μg/ml from S. typhosa) in the presence of phenylephrine at approximately ED90 for 6 h as described previously (Rees et al. (1990) Biochem. Biophys. Res. Commun. 173, 541-547). During this time a progressive loss of tone occurred because of iNOS induction. Cumulative concentration curves were then obtained for the inhibitors.

Data set [4] addresses T4, human nNOS (Homo sapiens, UniProt P29475).
T4 construct: made in house
Put plainly: Inhibition of purified human nNOS ([14C]-L-arginine to citrulline conversion). The data set is classed as biochemical. Particulars: 30° C., 0.5 μM [14C]-L-arginine, read-out: Purified Human Enzyme Kd nNOS. The method, then:
as §1

For data set [5], the target named is T2, human iNOS. Put plainly: Inhibition of purified human iNOS ([14C]-L-arginine to citrulline conversion). It counts as biochemical. Details: made in house. Particulars: for Selectivity for iNOS vs. cNOS: purified human enzymes, ratio of Kd; for Selectivity for iNOS vs. cNOS [relative to LNMMA]: value in square brackets. The method, then: as §1
Data set [6] concerns the target T5, iNOS in rat aortic rings (Rattus norvegicus, UniProt Q06518).
T5 construct: During this time a progressive loss of tone occurred because of iNOS induction; from tissue; host or cells: rat thoracic aorta rings, endothelium-denuded, exposed to LPS
Put plainly: Inhibition of iNOS in situ in rat aortic rings (LPS-induced loss of tone, endothelium-denuded rings). Particulars: for IC50: endothelium-denuded rings, LPS 6 h, mean ±SEM (n), read-out: IC50 iNOS in rate sortic rings; for Selectivity for iNOS: rat aortic rings, iNOS vs eNOS. It counts as cell-based. The method, then:
as §2

In data set [7] the target is T6, eNOS (Mus musculus, UniProt P70313).
T6 construct: from tissue; host or cells: whole animal: female CD-1 mice, untreated
Put plainly: Blood pressure in normal conscious mice (eNOS in vivo). Particulars: conscious female CD-1 mice, dose range 1-1000 mg/kg, intravenous. The method, then: (§3) The inhibition of eNOS and iNOS in vivo was assessed by the effects of inhibitors on blood pressure in either normal (eNOS) or endotoxin shocked (iNOS) conscious mice. Female CD-1 mice (25-35 g) were anaesthetised briefly with isofluorane (2%). Cannula lines were implanted in the femoral vein, tunnelled subcutaneously to exit at the top of the back and connected to a swivel tether system for continuous monitoring of blood pressure and for inhibitor administration respectively. Following recovery from surgery, animals with mean blood pressures in the normal range (90-110 mm Hg) were used to obtain cumulative concentration curves for inhibitors on blood pressure either without further treatment (“normal mice”) or 7 h after administration of lipopolysaccharide (12.5 mg/kg of LPS from E. coli 026:B6 intravenously over 30 s) to induce shock (“shocked mice”).

Data set [8] concerns iNOS. Put plainly: Endotoxin induced vascular (plasma) leakage in rats. It counts as in vivo. The method, then: The effects of Example 7 on endotoxin induced vascular leakage were assessed in rats as described by Laszlo et al ((1994) Brit. J. Pharmacol. 111 1309-1315). […] However, Example 7 did abolish the iNOS-dependent delayed plasma leakage, with an ED50 of 1 mg/kg.
In data set [9] the target is T7, iNOS (Mus musculus, UniProt P29477).
T7 construct: from tissue; host or cells: whole animal: female CD-1 mice, 7 h after LPS
Put plainly: Blood pressure in endotoxin shocked conscious mice (iNOS in vivo). Particulars: conscious female CD-1 mice, 7 h after LPS 12.5 mg/kg i.v. The method, then:
as §3

The mark [10] stands for this setting: purified human iNOS, 30° C., 0.5 μM [14C]-L-arginine, read-out: Purified Human Enzyme Kd iNOS.

The term Kd denotes a measure of binding affinity in units of concentration. The term IC50 denotes the point on the concentration scale where inhibition reaches its midpoint. What is called inhibition is the drop in the measured response relative to a control, in per cent. Take `Br.Br.N=C(CF)NCCS(=O)(=O)CC(N)C(=O)O` (stereo not drawn) [Example 1, 2-Amino-6-(1-imino-2-fluoroethylamino)-4,4-dioxo-4-thiahexanoic acid dihydrobromide]: the figures for the Kd in data set [1], in data set [4] and in data set [5] (setting [10]) were 23 µM, 26 µM and 1.9 µM, respectively. For the same compound, the IC50 in data set [2] was 5.5 ± 0.55 µM; in data set [3], greater than 300 µM; in [6] it was 1.7 ± 0.7 µM. In addition, the inhibition at 300 µM in data set [3] was 8%. The “Selectivity for iNOS vs. cNOS” value in [5] amounted to 12. Besides, the “Selectivity for iNOS vs. cNOS [relative to LNMMA]” value (“Selectivity … [relative to LNMMA]” below) in [5] worked out at 33. Further, the “Selectivity for iNOS” value in data set [6] is >>200-fold.

As for `COCC(=N)NCCS(=O)(=O)CC(N)C(=O)O` (stereo not drawn) [Example 2, 2-Amino-6-(1-imino-2-methoxyethylamino)-4,4-dioxo-4-thiohexanoic acid dihydrobromide dihydrate], the IC50 in data set [2] came to 30 ± 3 µM. Further, in data set [3], the inhibition at 300 µM is 26% and the IC50 is greater than 300 µM. In addition, in [6], the IC50 turned out to be 33 ± 13 µM and the “Selectivity for iNOS” value was >10-fold.

As for `CC(=O)OCC(=N)NCCS(=O)(=O)CC(N)C(=O)O` (stereo not drawn) [Example 3, dihydrobromide], in data set [2], the half-inhibitory concentration (IC50) was greater than 300 µM.

As to `N=C(COCc1ccccc1)NCCS(=O)(=O)CC(N)C(=O)O` (stereo not drawn) [Example 4, hydrobromide], in [2], the IC50 was greater than 300 µM.

For `CSCC(=N)NCCS(=O)(=O)CC(N)C(=O)O` (stereo not drawn) [Example 5, 2-Amino-6-(2-methylthio-1-imioethylamino)-4,4-dioxo-4-thiohexanoic acid], the IC50 in data set [2] came out at 95 ± 3 µM.

Take `N=C(CO)NCCS(=O)(=O)CC(N)C(=O)O` (stereo not drawn) [Example 6, 2-Amino-6-(2-hydroxy-1-iminoethylamino)-4,4-dioxo-4-thiahexanoic acid 1.67 hydrochloride 0.33 hydrobromide]: the IC50 in data set [2] was greater than 300 µM.

Turning to `CC(=N)NCCS(=O)(=O)CC(N)C(=O)O` (stereo not drawn) [Example 7, 2-Amino-6-(1-iminoethylamino)-4,4-dioxo-4-thiahexanoic acid], the Kd in [1] came out at 29 µM; in data set [4] it was 18 µM; in [5] (footnote: inhibition strongly time dependant on iNOS, read-out: Kd on iNOS, time dependent inhibition), 0.1 µM; in data set [5] (setting [10]) it was 2.9 µM. The IC50 came out at 14 ± 0.6 µM in data set [2], 101 ± 21 µM in data set [3] and 1.5 ± 0.3 µM in data set [6]. The “effect on blood pressure in normal mice” value in [7] is given as “no effect on blood pressure”. Also, the “aggravation of the endotoxin-induced plasma leakage” value in data set [8] (doses up to 5 mg/kg, administered concurrently with endotoxin) is on record as “did not cause aggravation”. In addition, the “ED50, abolition of iNOS-dependent delayed plasma leakage” value in [8] (endotoxin induced) is recorded as 1 mg/kg. Besides, the “Selectivity for iNOS vs. cNOS” value in data set [5] was 27. For the same compound, the “Selectivity … [relative to LNMMA]” value in data set [5] came out at 73. In addition, in data set [6], the “Selectivity for iNOS” value is 67-fold. Also, the “effect on blood pressure in shocked mice” value in data set [9] is “restore fully the blood pressure to the normal range”.

For `CC(=N)NCC[S+]([O-])CC(N)C(=O)O` (stereo not drawn) [Example 8, 2-Amino-6-(1-iminoethylamino)-4-oxo-4-thiahexanoic acid], in data set [1], the dissociation constant Kd is 100 µM. In addition, in data set [3], the inhibition at 300 µM came out at 42% and the IC50 was greater than 300 µM. The Kd in data set [4] turned out to be 68 µM. Also, in [5], the “Selectivity for iNOS vs. cNOS” value came to 11 and the “Selectivity … [relative to LNMMA]” value was 30. The Kd in data set [5] (setting [10]) amounted to 9.1 µM. Further, in data set [6], the IC50 came out at 2.7 ± 0.2 µM and the “Selectivity for iNOS” value is on record as greater than 100 fold.
